Drawing on patent US8901127B2, “Pyridazin derivatives as antagonists of the bradykinin B1 receptor” (Boehringer Ingelheim International GmbH, priority 2010, dated 2014), this text covers Ki for one compound.

The assay addresses T1, cynomolgus BK1-receptor (Macaca fascicularis, UniProt Q3BCU0).
T1 construct: expressed in transfected cells; host or cells: CHO cells
T1 sequence (Q3BCU0 1-352): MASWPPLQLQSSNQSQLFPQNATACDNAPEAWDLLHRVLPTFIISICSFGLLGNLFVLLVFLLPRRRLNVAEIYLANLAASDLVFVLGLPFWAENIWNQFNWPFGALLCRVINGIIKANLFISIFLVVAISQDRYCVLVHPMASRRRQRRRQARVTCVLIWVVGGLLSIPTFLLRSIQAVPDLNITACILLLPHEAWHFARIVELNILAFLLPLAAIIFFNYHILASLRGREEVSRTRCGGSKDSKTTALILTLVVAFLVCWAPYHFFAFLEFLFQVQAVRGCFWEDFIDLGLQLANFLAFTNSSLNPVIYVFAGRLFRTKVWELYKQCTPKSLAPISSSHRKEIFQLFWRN
The experiment in a line: cynoBK1 receptor binding assay. To be noted: homogenate of CHO cells expressing cynomolgus BK1-receptor; radioligand 0.5 to 5.0 nM kallidin (DesArg10,Leu9), [3,4-Prolyl-3,43H(N)]; ambient temperature. The procedure:
Description of the Method of Binding the cynoBK1-Receptor
CHO cells that express the cynomolgus BK1-receptor are cultivated in “HAM'S F-12 Medium”. The medium is removed from confluent cultures, the cells are washed with PBS buffer, scraped off or detached using Versene and isolated by centrifuging. Then the cells are homogenised in suspension, the homogenate is centrifuged and resuspended. After the protein content has been determined 200 μl of the homogenate (50 to 250 μg protein/assay) are incubated for 60-180 minutes at ambient temperature with 0.5 to 5.0 nM kallidin (DesArg10,Leu9), [3,4-Prolyl-3,43H(N)] and increasing concentrations of the test substance in a total volume of 250 μl. The incubation is stopped by rapid filtration through GF/B glass fibre filters that have been pre-treated with polyethyleneimine (0.3%). The radioactivity bound to the protein is measured with a TopCount NXT. The radioactivity bound in the presence of 1.0 μM kallidin (DesArg10) is defined as non-specific binding. The concentration binding curve may be analysed using computer-aided non-linear curve fitting to determine the corresponding Ki values for the test substance.

What is called Ki is a measure of affinity in units of concentration, obtained from inhibition or displacement. High values mean a looser hold on the target, low ones a stronger hold on the target. In the case of `O=C(N[C@@]1(C(=O)NCc2ncc(Nc3ccc(Cl)cc3C(F)(F)F)cc2F)CCOC1)c1cn[nH]c(=O)c1` [(5)], the Ki turned out to be 5.6 nM.
